Results taken from the NIST ThermoML archive (doi:10.1021/je0499364).

Assays:
[1] = molar heat capacity at constant pressure; settings: 101.33 kPa
[2] = Crystal
[3] = Molar enthalpy of transition or fusion; settings: Crystal

CCCCCCCCCCCCCCCCCC(=O)OC [methyl octadecanoate]
[1]
Settings | molar heat capacity at constant pressure [J/K/mol]
5 K, Crystal | 0.82
10 K, Crystal | 5.96
20 K, Crystal | 26.2
30 K, Crystal | 52.72
40 K, Crystal | 82.6
50 K, Crystal | 112.11
60 K, Crystal | 137.8
70 K, Crystal | 162.71
80 K, Crystal | 182.89
90 K, Crystal | 201.46
100 K, Crystal | 217.35
110 K, Crystal | 234.15
120 K, Crystal | 248.17
130 K, Crystal | 261.72
140 K, Crystal | 274.54
150 K, Crystal | 286.99
160 K, Crystal | 299.33
170 K, Crystal | 312.93
180 K, Crystal | 327.18
190 K, Crystal | 341.65
200 K, Crystal | 354.7
210 K, Crystal | 368.18
220 K, Crystal | 382.77
230 K, Crystal | 397.82
240 K, Crystal | 413.11
250 K, Crystal | 428.51
260 K, Crystal | 446.92
270 K, Crystal | 468.64
280 K, Crystal | 497.34
290 K, Crystal | 541.05
320 K, Liquid | 639
330 K, Liquid | 646.44
340 K, Liquid | 655.14
350 K, Liquid | 664.03

Settings | Molar enthalpy of transition or fusion [kcal/mol] | Triple point temperature [K]
[2] | – | 311.84
[3] | 15.86 | –

CCCCCCCCCCCCCCCC(=O)OC [methyl hexadecanoate]
[1]
Settings | molar heat capacity at constant pressure [J/K/mol]
5 K, Crystal | 0.66
10 K, Crystal | 5.56
20 K, Crystal | 23.7
30 K, Crystal | 47.98
40 K, Crystal | 75.87
50 K, Crystal | 104.12
60 K, Crystal | 129.69
70 K, Crystal | 151.19
80 K, Crystal | 167.13
90 K, Crystal | 184.19
100 K, Crystal | 198.32
110 K, Crystal | 213.49
120 K, Crystal | 226.5
130 K, Crystal | 238.62
140 K, Crystal | 250.27
150 K, Crystal | 261.54
160 K, Crystal | 272.73
170 K, Crystal | 284.03
180 K, Crystal | 295.27
190 K, Crystal | 306.8
200 K, Crystal | 318.65
210 K, Crystal | 330.97
220 K, Crystal | 343.93
230 K, Crystal | 357.74
240 K, Crystal | 372.37
250 K, Crystal | 388.24
260 K, Crystal | 405.39
270 K, Crystal | 423.81
280 K, Crystal | 448.6
290 K, Crystal | 482.7
300 K, Crystal | 740.48
310 K, Liquid | 570.55
320 K, Liquid | 576.47
330 K, Liquid | 583.02
340 K, Liquid | 590.14
350 K, Liquid | 597.66

Settings | Triple point temperature [K]
[2], Adiabatic calorimetry | 302.71

Settings | Molar enthalpy of transition or fusion [kcal/mol]
[3] | 14.35

CCCCCCCCCCCC(=O)OC [methyl dodecanoate]
[1]
Settings | molar heat capacity at constant pressure [J/K/mol]
5 K, Crystal | 0.5
10 K, Crystal | 4.31
20 K, Crystal | 19.62
30 K, Crystal | 40.21
40 K, Crystal | 63.08
50 K, Crystal | 85.07
60 K, Crystal | 103.02
70 K, Crystal | 119.02
80 K, Crystal | 134.57
90 K, Crystal | 148.81
100 K, Crystal | 160.46
110 K, Crystal | 171.83
120 K, Crystal | 181.94
130 K, Crystal | 191.82
140 K, Crystal | 201.16
150 K, Crystal | 209.76
160 K, Crystal | 218.85
170 K, Crystal | 227.97
180 K, Crystal | 237.26
190 K, Crystal | 246.66
200 K, Crystal | 256.21
210 K, Crystal | 265.84
220 K, Crystal | 277.21
230 K, Crystal | 288.57
240 K, Crystal | 299.95
250 K, Crystal | 315.69
260 K, Crystal | 335.52
270 K, Crystal | 392.98
280 K, Liquid | 428
290 K, Liquid | 432.76
300 K, Liquid | 438.82
310 K, Liquid | 443.32
320 K, Liquid | 448.38
330 K, Liquid | 453.83
340 K, Liquid | 460.08
350 K, Liquid | 467.86

Settings | Molar enthalpy of transition or fusion [kcal/mol] | Triple point temperature [K]
[2] | – | 278.18
[3] | 10.3 | –

CCCCCCCCCCC(=O)OC [methyl undecanoate]
[1]
Settings | molar heat capacity at constant pressure [J/K/mol]
5 K, Crystal | 0.42
10 K, Crystal | 3.28
20 K, Crystal | 18.49
30 K, Crystal | 38.09
40 K, Crystal | 59.59
50 K, Crystal | 80.21
60 K, Crystal | 97.96
70 K, Crystal | 113.74
80 K, Crystal | 128.03
90 K, Crystal | 141.39
100 K, Crystal | 152.92
110 K, Crystal | 163.81
120 K, Crystal | 173.57
130 K, Crystal | 182.89
140 K, Crystal | 191.72
150 K, Crystal | 200.53
160 K, Crystal | 209.38
170 K, Crystal | 217.78
180 K, Crystal | 226.5
190 K, Crystal | 235.38
200 K, Crystal | 244.52
210 K, Crystal | 253.93
220 K, Crystal | 264.97
230 K, Crystal | 276.95
240 K, Crystal | 291.77
250 K, Crystal | 320.5
270 K, Liquid | 395.83
280 K, Liquid | 398.95
290 K, Liquid | 402.95
300 K, Liquid | 406.99
310 K, Liquid | 411.22
320 K, Liquid | 416.08
330 K, Liquid | 421.78
340 K, Liquid | 426.55
350 K, Liquid | 431.52

Settings | Molar enthalpy of transition or fusion [kcal/mol] | Triple point temperature [K]
[2] | – | 261.8
[3] | 8.65 | –

CCCCCCCCCCCCCC(=O)OC [methyl tetradecanoate]
[1]
Settings | molar heat capacity at constant pressure [J/K/mol]
5 K, Crystal | 0.55
10 K, Crystal | 4.56
20 K, Crystal | 21.34
30 K, Crystal | 43.99
40 K, Crystal | 69.2
50 K, Crystal | 93.62
60 K, Crystal | 113.9
70 K, Crystal | 133.41
80 K, Crystal | 150.35
90 K, Crystal | 165.54
100 K, Crystal | 179.38
110 K, Crystal | 192.06
120 K, Crystal | 203.55
130 K, Crystal | 214.52
140 K, Crystal | 224.93
150 K, Crystal | 235.23
160 K, Crystal | 244.79
170 K, Crystal | 254.91
180 K, Crystal | 265.19
190 K, Crystal | 275.63
200 K, Crystal | 286.07
210 K, Crystal | 296.67
220 K, Crystal | 308.85
230 K, Crystal | 321.05
240 K, Crystal | 334.49
250 K, Crystal | 349.48
260 K, Crystal | 368.64
270 K, Crystal | 388.14
280 K, Crystal | 429.3
300 K, Liquid | 500.03
310 K, Liquid | 504.66
320 K, Liquid | 510
330 K, Liquid | 515.86
340 K, Liquid | 522.03
350 K, Liquid | 528.04

Settings | Molar enthalpy of transition or fusion [kcal/mol] | Triple point temperature [K]
[2] | – | 292.14
[3] | 12.43 | –

CCCCCCCCC(=O)OC [methyl nonanoate]
[1]
Settings | molar heat capacity at constant pressure [J/K/mol]
5 K, Crystal | 0.39
10 K, Crystal | 2.96
20 K, Crystal | 17.17
30 K, Crystal | 34.66
40 K, Crystal | 53.39
50 K, Crystal | 71.31
60 K, Crystal | 86.46
70 K, Crystal | 100.55
80 K, Crystal | 113.08
90 K, Crystal | 123.98
100 K, Crystal | 134.32
110 K, Crystal | 143.79
120 K, Crystal | 152.28
130 K, Crystal | 160.47
140 K, Crystal | 168.48
150 K, Crystal | 175.96
160 K, Crystal | 183.23
170 K, Crystal | 190.85
180 K, Crystal | 198.49
190 K, Crystal | 206.56
200 K, Crystal | 215.27
210 K, Crystal | 224.62
220 K, Crystal | 236.53
230 K, Crystal | 265.31
240 K, Liquid | 330.8
250 K, Liquid | 330.84
260 K, Liquid | 333.42
270 K, Liquid | 335.9
280 K, Liquid | 338.72
290 K, Liquid | 342.82
300 K, Liquid | 346.27
310 K, Liquid | 350.79
320 K, Liquid | 354.3
330 K, Liquid | 359.1
340 K, Liquid | 363.82
350 K, Liquid | 368.16

Settings | Molar enthalpy of transition or fusion [kcal/mol] | Triple point temperature [K]
[2] | – | 238.72
[3] | 6.53 | –

CCCCCCCCCCCCCCCCCCCC(=O)OC [methyl eicosanoate]
[1]
Settings | molar heat capacity at constant pressure [J/K/mol]
5 K, Crystal | 0.75
10 K, Crystal | 5.46
20 K, Crystal | 28.85
30 K, Crystal | 56.97
40 K, Crystal | 89.89
50 K, Crystal | 122.31
60 K, Crystal | 149.98
70 K, Crystal | 176.8
80 K, Crystal | 199.8
90 K, Crystal | 220.14
100 K, Crystal | 235.76
110 K, Crystal | 255.12
120 K, Crystal | 271.01
130 K, Crystal | 285.48
140 K, Crystal | 299.45
150 K, Crystal | 313.11
160 K, Crystal | 326.52
170 K, Crystal | 339.86
180 K, Crystal | 353.31
190 K, Crystal | 366.99
200 K, Crystal | 381.11
210 K, Crystal | 395.71
220 K, Crystal | 411.05
230 K, Crystal | 427.04
240 K, Crystal | 443.77
250 K, Crystal | 461.58
260 K, Crystal | 480.5
270 K, Crystal | 501.55
280 K, Crystal | 525.09
290 K, Crystal | 551.06
300 K, Crystal | 585.33
330 K, Liquid | 714.47
340 K, Liquid | 722.28
350 K, Liquid | 732.2

Settings | Molar enthalpy of transition or fusion [kcal/mol] | Triple point temperature [K]
[2] | – | 319.48
[3] | 18.83 | –

CCCCCCCCCC(=O)OC [methyl decanoate]
[1]
Settings | molar heat capacity at constant pressure [J/K/mol]
5 K, Crystal | 0.45
10 K, Crystal | 3.7
20 K, Crystal | 20.01
30 K, Crystal | 37.87
40 K, Crystal | 57.28
50 K, Crystal | 75.63
60 K, Crystal | 91.46
70 K, Crystal | 105.95
80 K, Crystal | 119.09
90 K, Crystal | 131.08
100 K, Crystal | 141.62
110 K, Crystal | 151.65
120 K, Crystal | 160.63
130 K, Crystal | 169.23
140 K, Crystal | 177.35
150 K, Crystal | 185.25
160 K, Crystal | 192.99
170 K, Crystal | 200.77
180 K, Crystal | 209.01
190 K, Crystal | 217.44
200 K, Crystal | 226.26
210 K, Crystal | 234.91
220 K, Crystal | 245.06
230 K, Crystal | 256.05
240 K, Crystal | 269.17
250 K, Crystal | 300.63
270 K, Liquid | 361.09
280 K, Liquid | 368.72
290 K, Liquid | 372.12
300 K, Liquid | 376.14
310 K, Liquid | 380.31
320 K, Liquid | 385.19
330 K, Liquid | 389.78
340 K, Liquid | 394.95
350 K, Liquid | 400.2

Settings | Molar enthalpy of transition or fusion [kcal/mol] | Triple point temperature [K]
[2] | – | 260.33
[3] | 8.58 | –

CCCCCCCCCCCCCCC(=O)OC [methyl pentadecanoate]
[1]
Settings | molar heat capacity at constant pressure [J/K/mol]
5 K, Crystal | 0.5
10 K, Crystal | 4.15
20 K, Crystal | 21.13
30 K, Crystal | 43.92
40 K, Crystal | 71.36
50 K, Crystal | 97.58
60 K, Crystal | 120.37
70 K, Crystal | 141.42
80 K, Crystal | 159.35
90 K, Crystal | 175.8
100 K, Crystal | 190.15
110 K, Crystal | 203.86
120 K, Crystal | 216.45
130 K, Crystal | 228.03
140 K, Crystal | 239.15
150 K, Crystal | 249.97
160 K, Crystal | 260.57
170 K, Crystal | 272.29
180 K, Crystal | 282.1
190 K, Crystal | 293.1
200 K, Crystal | 304.43
210 K, Crystal | 316.28
220 K, Crystal | 328.72
230 K, Crystal | 341.8
240 K, Crystal | 355.9
250 K, Crystal | 371.28
260 K, Crystal | 387.35
270 K, Crystal | 403.92
280 K, Crystal | 432.13
300 K, Liquid | 524.33
310 K, Liquid | 534.12
320 K, Liquid | 539.26
330 K, Liquid | 544.8
340 K, Liquid | 551.15

Settings | Molar enthalpy of transition or fusion [kcal/mol] | Triple point temperature [K]
[2] | – | 292.35
[3] | 12.97 | –
